{"source": "patent US7956062B2", "about": "“Reactive oxygen generating enzyme inhibitor with nitric oxide bioactivity and uses thereof” (Duke University, priority 2004, dated 2011)", "key": {"[1]": {"test_system": "Isolated cardiac myocytes from nNOS deficient rats", "test": "Isolated cardiac myocytes: sarcomere length and systolic calcium transient responses", "assay_type": "cell-based", "conditions": "versus baseline; for sarcomere length (SL), a measure of myocardial contraction (% change from baseline): FIG. 1A; for systolic calcium transient (% change from baseline): FIG. 1B", "description": "Isolated cardiac myocytes from nNOS deficient rats (known to have increased xanthine oxidase activity), were evaluated for responses at baseline (BL or bl), then to allopurinol, then to nitrated allopurinol. The concentration of allopurinol used was 0.5×10^−3 M. The concentration of nitrated allopurinol used was 10^−4M. Evaluation was carried out for sarcomere length (SL), a measure of myocardial contraction, and for systolic calcium transient which drives myocardial contraction. The results for evaluation of sarcomere length are shown in FIG. 1A and results for evaluation of systolic calcium transient are shown in FIG. 1B."}, "dilated cardiomyopathy": {"test_system": "dilated cardiomyopathy", "test": "Patient case, dilated cardiomyopathy (Working Example II)", "assay_type": "in vivo", "conditions": "300 mg PO BID, over the ensuing week", "from_the_text": "A person presents with a dilated cardiomyopathy and is begun on a standard regimen including ace inhibitors, diuretics, and digoxin with little improvement."}, "class 3 angina": {"test_system": "class 3 angina", "test": "Patient case, class 3 angina (Working Example III)", "assay_type": "in vivo", "conditions": "300 mg/day; over two weeks; class 3 before treatment", "description": "A person with class 3 angina is begun on nitrated allopurinol (16), 300 mg/day."}, "sickle cell disease": {"test_system": "sickle cell disease", "test": "Patient case, sickle cell disease (Working Example V)", "assay_type": "in vivo", "conditions": "300 mg/day, over the following year", "description": "A person with sickle cell disease presents with pulmonary hypertension and LFT abnormalities. They had had four admissions to the emergency in the past year with painful crisis. They are begun n 300 mg/day of nitrated allopurinol (16) with a decrease in their pulmonary artery pressure over the following year from a mean of 35 mm Hg to 30 mm Hg."}, "hyperlipidemia": {"test_system": "hyperlipidemia", "test": "Patient case, hyperlipidemia with calcification of coronaries and aorta (Working Example VI)", "assay_type": "in vivo", "conditions": "300 mg/day; over the following two years"}, "[2]": {"test_system": "congestive heart failure and a dilated cardiomyopathy", "test": "Patient case, congestive heart failure and dilated cardiomyopathy (Working Example IX)", "assay_type": "in vivo", "conditions": "300 mg POQD, one week later", "description": "A person with congestive heart failure and a dilated cardiomyopathy is begun on nitrated allopurinol (16), 300 mg POQD. One week later, their ejection fraction had improved from 35% to 40%, their blood pressure had decreased from 130/80 to 110/80, and […] pO2 has improved from 70 to 80 mm Hg on room air."}, "[3]": {"test_system": "crush wound to their left lower extremity, ischemic for six hours", "test": "Patient case, ischemic crush wound with revascularization (Working Example IV)", "assay_type": "in vivo", "conditions": "emergency surgery", "from_the_text": "A person has a crush wound to their left lower extremity and undergoes emergency surgery."}, "Parkinson's disease": {"test_system": "Parkinson's disease", "test": "Patient case, Parkinson's disease (Working Example X)", "assay_type": "in vivo", "conditions": "300 mg/day; after three weeks; treated with L-dopa", "from_the_text": "A person with Parkinson's disease treated with L-dopa has persistent tremor and motor problems."}, "Alzheimer's disease": {"test_system": "Alzheimer's disease", "test": "Patient case, Alzheimer's disease (Working Example XI)", "assay_type": "in vivo", "conditions": "300 mg/day; after 3 months", "description": "A person with Alzheimer's disease is begun on 300 mg/day nitrated allopurinol (16). Their memory and cognitive function stabilizes after 3 months."}, "[4]": {"test_system": "bleomycin-induced lung injury", "test": "Patient case, bleomycin-induced lung injury (Working Example VII)", "assay_type": "in vivo", "conditions": "300 PO BID; over the following week; on 50% oxygen; from 60 (on 100% oxygen)", "from_the_text": "A person with bleomycin-induced lung injury is begun on nitrated allopurinol (16), 300 PO BID. The PO2 improves from 60 (on 100% oxygen) to 65 mm Hg on 50% oxygen over the following week."}, "ALS": {"test_system": "ALS", "test": "Patient case, ALS (Working Example XIII)", "assay_type": "in vivo", "conditions": "300 mg/day; after three weeks", "description": "A person with ALS with progressive deterioration, stabilizes after three weeks at 300 mg/day of nitrated allopurinol (16)."}, "[5]": {"test_system": "asthmatic with frequent exacerbations", "test": "Patient case, asthma (Working Example XIV)", "assay_type": "in vivo", "conditions": "300 mg/day", "description": "A asthmatic with frequent exacerbations is begun on 300 mg/day nitrated allopurinol (16)."}, "leg pain and diabetes": {"test_system": "leg pain and diabetes", "test": "Patient case, leg pain and diabetes (Working Example XII)", "assay_type": "in vivo", "conditions": "300 mg/day"}}, "data": [{"smiles": "Oc1ncnc2[nH]ncc12", "note": "[allopurinol, reference compound]", "values": [{"measurement": "sarcomere length (SL), a measure of myocardial contraction (% change from baseline)", "setting": "[1]; allopurinol 0.5×10^−3 M", "result": "rise"}, {"measurement": "systolic calcium transient (% change from baseline)", "setting": "[1]; allopurinol 0.5×10^−3 M", "result": "rise"}]}, {"smiles": "O=c1c2cnn(CCCO[N+](=O)[O-])c2ncn1CCCO[N+](=O)[O-]", "note": "[nitrated allopurinol (16), 1,5-bis(3-nitrooxypropyl)-1,5-dihydro-4H-pyrazolo[3,4-d]pyrimidin-4-one]", "values": [{"measurement": "shortness of breath", "setting": "dilated cardiomyopathy", "result": "decrease in a shortness of breath"}, {"measurement": "left ventricular function", "setting": "dilated cardiomyopathy; on standard regimen with little improvement", "result": "improvement of left ventricular function"}, {"measurement": "angina classification", "setting": "class 3 angina", "result": "improved to class 2"}, {"measurement": "LFT abnormalities", "setting": "sickle cell disease", "result": "resolve"}, {"measurement": "painful crisis", "setting": "sickle cell disease; four admissions with painful crisis in the past year", "result": "only one painful crisis"}, {"measurement": "pulmonary artery pressure (mean)", "setting": "sickle cell disease; from a mean of 35 mm Hg", "result": 30, "unit": "mm Hg"}, {"measurement": "disease (calcification of coronaries and aorta)", "setting": "hyperlipidemia", "result": "mild regression of their disease"}, {"measurement": "symptoms on angina", "setting": "[2]", "result": "decreased"}, {"measurement": "ejection fraction", "setting": "[2]; from 35%", "result": 40, "unit": "%"}, {"measurement": "blood pressure", "setting": "[2]; from 130/80", "result": "110/80"}, {"measurement": "pO2", "setting": "[2]; on room air, from 70", "result": 80, "unit": "mm Hg"}, {"measurement": "aggravation of injury following revascularization", "setting": "[3]", "result": "no aggravation of injury following revascularization"}, {"measurement": "symptoms (persistent tremor and motor problems)", "setting": "Parkinson's disease", "result": "symptoms improve"}, {"measurement": "memory and cognitive function", "setting": "Alzheimer's disease", "result": "stabilizes"}, {"measurement": "PO2", "setting": "[4]", "result": 65, "unit": "mm Hg"}, {"measurement": "progressive deterioration", "setting": "ALS", "result": "stabilizes"}, {"measurement": "steroid use", "setting": "[5]", "result": "successfully tapered"}, {"measurement": "sarcomere length (SL), a measure of myocardial contraction (% change from baseline)", "setting": "[1]; nitrated allopurinol 10^−4M", "result": "increase obtained for nitrated allopurinol being greater than increase obtained for allopurinol"}, {"measurement": "systolic calcium transient (% change from baseline)", "setting": "[1]; nitrated allopurinol 10^−4M", "result": "increase obtained for nitrated allopurinol being greater than increase obtained for allopurinol"}, {"measurement": "pain (leg pain)", "setting": "leg pain and diabetes", "result": "pain decreases"}, {"measurement": "distance they can walk", "setting": "leg pain and diabetes; unresponsive to treatment before", "result": "improves"}]}]}
